Drawing on patent US9351955B2, “Compounds and pharmaceutical compositions thereof for the treatment of cystic fibrosis” (Galapagos NV, priority 2013, dated 2016), this text covers EC50 for 21 compounds.

pEC50: −log10 of the molar value.

One experiment deals with T1, CFTR ΔF508 mutant (Homo sapiens, UniProt P13569, DEL508-508).
T1 construct: expressed in transfected cells; host or cells: CFBE41o- (adenoviral transduction)
Kind of experiment: YFP-halide influx assay for the CFTR-ΔF508 mutation (384 well, CFBE41o- cells, FDSS/μCell). It is filed as cell-based. To be noted: forskolin 10.67 μM, fluorescence after 36 seconds, read-out: EC50 measured by YFP-halide influx assay for the CFTR-ΔF508. The source says:
6.2. YFP-Halide Influx Assay for the CFTR-ΔF508 Mutation
The YFP halide influx assay measures the functionality of the cystic fibrosis Transmembrane Conductance regulator (CFTR) channels in the cystic fibrosis bronchial epithelium cell line CFBE41o-. The assay is used to evaluate the capacity of compounds to increase the open probability of existing CFTR channels in the membrane. It makes use of the observation that the yellow fluorescent protein (YFP) variant YFP H148Q, I152L has its fluorescence substantially quenched by halide ions like Cl— and I— (Galietta et al., 2001; Nagai et al., 2002).
For this purpose, CFBE410-cells are seeded in 384 well plates (3000 CFBE cells/well). One day after seeding, the CFBE cells are transduced with adenoviral vectors that direct the expression of the CFTR ΔF508 mutant and of the YFP reporter. Cells are incubated at 27° C., 5% CO2 for 24 hours so as to allow for the proper folding and migration to the membrane of the CFTR channel or treated with a CFTR modulator during 24 h at 37° C.
The I— induced quenching of fluorescence is recorded […] immediately after injection of I— for 2 min on an FDSS/μCell (Hamamatsu). The capacity of a compound to increase the channel opening is directly correlated with the decrease in fluorescence, and is expressed as (1−(fluorescence after 36 seconds (F)/fluorescence before injection (F0))) and an EC50 can be derived from a (1−F/F0) vs compound concentration plot.

The target of another experiment is T2, CFTR G551D mutant (Homo sapiens, UniProt P13569, G551D).
T2 construct: expressed in transfected cells; host or cells: HEK293 (reverse transfection with plasmids)
In words: YFP-halide influx assay for the CFTR-G551D mutation (HEK293 cells). In kind it is cell-based. The following applies: HEK293 cells expressing CFTR G551D and YFP reporter; forskolin 10.67 μM; read-out: EC50 measured by YFP-halide influx assay for the CFTR-G551D. An excerpt:
6.3. YFP-Halide Influx Assay for the CFTR-G551D Mutation
The YFP halide influx assay measures the functionality of the cystic fibrosis Transmembrane Conductance regulator (CFTR) channels. The assay is used to evaluate the capacity of compounds to increase the channel opening of existing mutant CFTR channels in the membrane. It makes use of the observation that the yellow fluorescent protein (YFP) variant YFP H148Q, I152L, F47L has its fluorescence substantially quenched by halide ions like Cl^− and I^−. (Galietta et al., 2001)
For this purpose, HEK293-cells are seeded in 96 well plates. During seeding, the cells are reverse-transfected with plasmid vectors that direct the expression of the CFTR G551D mutant and of the YFP reporter. Cells are incubated at 37° C., 5% CO2 for 24 hours so as to allow for sufficient expression of the CFTR protein.
The I^−-induced quenching of fluorescence is recorded immediately after injection of I^− for 7 seconds. The capacity of a compound to increase the channel opening is directly correlated with the decrease in fluorescence, and is expressed as (1−(fluorescence after 7 seconds (F)/fluorescence before injection (F0))) and an EC50 can be derived from a (1−F/F0) vs compound concentration plot.

T1 sequence (P13569 with tags, fused parts or gaps DEL508-508): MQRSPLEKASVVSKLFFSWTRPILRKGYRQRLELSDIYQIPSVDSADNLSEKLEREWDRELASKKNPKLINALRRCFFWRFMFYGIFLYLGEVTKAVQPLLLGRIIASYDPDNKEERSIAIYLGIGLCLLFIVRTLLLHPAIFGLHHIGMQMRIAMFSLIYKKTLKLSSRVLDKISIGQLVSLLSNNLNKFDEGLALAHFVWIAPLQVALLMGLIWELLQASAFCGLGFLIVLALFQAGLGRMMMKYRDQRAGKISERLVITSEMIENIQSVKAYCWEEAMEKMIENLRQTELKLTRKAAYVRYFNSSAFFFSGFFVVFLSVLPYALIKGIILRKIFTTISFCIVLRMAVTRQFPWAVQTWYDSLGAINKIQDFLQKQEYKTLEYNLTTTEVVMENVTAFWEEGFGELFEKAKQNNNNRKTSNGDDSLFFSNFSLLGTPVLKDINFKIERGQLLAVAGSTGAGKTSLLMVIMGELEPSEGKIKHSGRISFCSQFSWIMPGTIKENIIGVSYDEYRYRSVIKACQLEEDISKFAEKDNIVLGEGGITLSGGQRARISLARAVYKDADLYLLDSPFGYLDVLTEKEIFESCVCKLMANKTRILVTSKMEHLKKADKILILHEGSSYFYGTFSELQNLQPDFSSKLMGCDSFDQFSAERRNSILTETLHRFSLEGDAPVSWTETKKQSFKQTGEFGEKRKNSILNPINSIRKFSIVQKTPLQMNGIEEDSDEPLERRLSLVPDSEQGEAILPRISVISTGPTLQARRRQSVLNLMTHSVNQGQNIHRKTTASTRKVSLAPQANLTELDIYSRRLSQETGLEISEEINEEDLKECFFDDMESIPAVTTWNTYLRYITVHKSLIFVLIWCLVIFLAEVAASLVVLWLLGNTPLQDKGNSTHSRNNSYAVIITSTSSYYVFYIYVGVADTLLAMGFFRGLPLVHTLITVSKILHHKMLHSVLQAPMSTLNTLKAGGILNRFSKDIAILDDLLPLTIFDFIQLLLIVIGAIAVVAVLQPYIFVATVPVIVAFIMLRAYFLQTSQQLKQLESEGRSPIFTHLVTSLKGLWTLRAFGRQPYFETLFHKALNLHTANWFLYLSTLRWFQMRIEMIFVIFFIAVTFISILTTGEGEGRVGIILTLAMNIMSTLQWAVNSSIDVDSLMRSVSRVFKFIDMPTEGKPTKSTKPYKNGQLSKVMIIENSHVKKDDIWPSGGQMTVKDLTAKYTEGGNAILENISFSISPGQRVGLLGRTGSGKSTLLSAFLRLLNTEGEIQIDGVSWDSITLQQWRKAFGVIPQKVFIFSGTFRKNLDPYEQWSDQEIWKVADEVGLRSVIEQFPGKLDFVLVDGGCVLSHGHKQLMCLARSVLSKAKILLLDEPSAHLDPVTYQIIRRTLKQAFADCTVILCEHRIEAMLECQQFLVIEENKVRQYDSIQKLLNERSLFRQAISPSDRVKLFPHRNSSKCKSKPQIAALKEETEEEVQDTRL
T2 sequence (P13569 whole entry G551D): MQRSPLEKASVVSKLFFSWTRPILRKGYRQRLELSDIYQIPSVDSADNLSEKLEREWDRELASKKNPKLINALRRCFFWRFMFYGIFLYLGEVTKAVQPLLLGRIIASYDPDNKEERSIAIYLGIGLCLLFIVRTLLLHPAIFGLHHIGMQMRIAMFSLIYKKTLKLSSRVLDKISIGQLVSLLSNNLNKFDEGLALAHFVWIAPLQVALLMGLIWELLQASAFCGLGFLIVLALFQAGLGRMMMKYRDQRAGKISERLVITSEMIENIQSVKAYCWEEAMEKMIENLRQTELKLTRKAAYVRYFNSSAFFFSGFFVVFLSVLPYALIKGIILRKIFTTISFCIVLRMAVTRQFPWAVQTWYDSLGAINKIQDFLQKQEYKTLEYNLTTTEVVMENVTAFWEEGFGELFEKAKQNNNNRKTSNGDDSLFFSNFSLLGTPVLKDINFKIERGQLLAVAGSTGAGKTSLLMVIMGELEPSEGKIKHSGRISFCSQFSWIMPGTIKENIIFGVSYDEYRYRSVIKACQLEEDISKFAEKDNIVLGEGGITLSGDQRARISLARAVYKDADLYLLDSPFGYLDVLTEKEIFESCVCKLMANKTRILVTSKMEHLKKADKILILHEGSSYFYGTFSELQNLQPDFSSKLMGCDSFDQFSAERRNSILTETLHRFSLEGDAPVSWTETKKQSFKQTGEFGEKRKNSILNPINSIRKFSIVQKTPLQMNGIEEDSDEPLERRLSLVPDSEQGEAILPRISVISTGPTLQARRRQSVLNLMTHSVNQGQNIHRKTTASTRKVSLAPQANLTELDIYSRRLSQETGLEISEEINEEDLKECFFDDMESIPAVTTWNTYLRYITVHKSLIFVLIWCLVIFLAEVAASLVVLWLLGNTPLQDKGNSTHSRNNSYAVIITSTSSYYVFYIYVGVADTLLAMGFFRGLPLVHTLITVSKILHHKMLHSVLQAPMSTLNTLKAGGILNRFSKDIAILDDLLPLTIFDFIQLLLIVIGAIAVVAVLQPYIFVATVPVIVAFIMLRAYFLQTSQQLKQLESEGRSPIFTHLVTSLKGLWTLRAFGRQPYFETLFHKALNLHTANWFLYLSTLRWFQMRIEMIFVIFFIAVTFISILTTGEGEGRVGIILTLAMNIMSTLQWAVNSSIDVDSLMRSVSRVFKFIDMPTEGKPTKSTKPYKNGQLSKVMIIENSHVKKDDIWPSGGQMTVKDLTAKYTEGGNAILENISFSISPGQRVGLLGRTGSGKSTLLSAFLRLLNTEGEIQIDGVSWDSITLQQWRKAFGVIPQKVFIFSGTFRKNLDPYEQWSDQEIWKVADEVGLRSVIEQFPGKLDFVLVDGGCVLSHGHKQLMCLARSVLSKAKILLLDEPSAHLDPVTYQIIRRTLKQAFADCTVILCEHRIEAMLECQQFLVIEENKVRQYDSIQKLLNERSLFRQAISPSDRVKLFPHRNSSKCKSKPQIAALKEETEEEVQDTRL

Regarding `CC(C)C(O)C(=O)Nc1sc2c(c1C(N)=O)CC(C)(C)OC2(C)C` (single isomer, unassigned) [Compound 51, 2-[[2-hydroxy-3-methyl-butanoyl]amino]-5,5,7,7-tetramethyl-4H-thieno[2,3-c]pyran-3-carboxamide], the pEC50 (in general, −log10 of the EC50, conventionally taken in molar units) was 7.03 at CFTR ΔF508 mutant and 5.26 at CFTR G551D mutant.
Regarding `CC1(C)Cc2c(sc(NC(=O)C(CO)CC3CC3)c2C(N)=O)C(C)(C)O1` (single isomer, unassigned) [Compound 96, 2-[[2-(cyclopropylmethyl)-3-hydroxy-propanoyl]amino]-5,5,7,7-tetramethyl-4H-thieno[2,3-c]pyran-3-carboxamide], the figures for the pEC50 at CFTR ΔF508 mutant and at CFTR G551D mutant were 7.01 and 5.48, respectively.
On the same counts, the results for `CC1(C)Cc2c(sc(NC(=O)C(CO)CC3CC3)c2C(N)=O)C(C)(C)O1` (single isomer, unassigned) [Compound 97, 2-[[2-(cyclopropylmethyl)-3-hydroxy-propanoyl]amino]-5,5,7,7-tetramethyl-4H-thieno[2,3-c]pyran-3-carboxamide] are 6.95 and 5.56.
On the same counts, the results for `CC(C)(C)CC(O)C(=O)Nc1sc2c(c1C(N)=O)CC(C)(C)OC2(C)C` (single isomer, unassigned) [Compound 109, 2-[[2-hydroxy-4,4-dimethyl-pentanoyl]amino]-5,5,7,7-tetramethyl-4H-thieno[2,3-c]pyran-3-carboxamide] are 8.36 and 5.49.
`CC1(C)Cc2c(sc(NC(=O)c3n[nH]cc3C3COCCO3)c2C(N)=O)C(C)(C)O1` (single isomer, unassigned) [Compound 111, N-(3-carbamoyl-5,5,7,7-tetramethyl-4H-thieno[2,3-c]pyran-2-yl)-4-[1,4-dioxan-2-yl]-1H-pyrazole-3-carboxamide]: the results for the negative-log EC50 (pEC50) on CFTR ΔF508 mutant and on CFTR G551D mutant were 7.62 and 5.51, respectively.
For `CC1(C)Cc2c(sc(NC(=O)c3n[nH]cc3C3COCCO3)c2C(N)=O)C(C)(C)O1` (single isomer, unassigned) [Compound 112, N-(3-carbamoyl-5,5,7,7-tetramethyl-4H-thieno[2,3-c]pyran-2-yl)-4-[1,4-dioxan-2-yl]-1H-pyrazole-3-carboxamide], in that order: 7.46 and 5.74.
For `CC1(C)Cc2c(sc(NC(=O)C3CC(F)(F)C3)c2C(N)=O)C(C)(C)O1` [Compound 47, 2-[(3,3-difluorocyclobutanecarbonyl)amino]-5,5,7,7-tetramethyl-4H-thieno[2,3-c]pyran-3-carboxamide], in that order: 6.93 and 5.33.
On the same counts, the results for `CC1(C)Cc2c(sc(NC(=O)C3CC3(F)F)c2C(N)=O)C(C)(C)O1` (stereo not drawn) [Compound 48, 2-[(2,2-difluorocyclopropanecarbonyl)amino]-5,5,7,7-tetramethyl-4H-thieno[2,3-c]pyran-3-carboxamide] are 7.18 and 5.34.
For `CC1(C)Cc2c(sc(NC(=O)c3cn[nH]c3)c2C(N)=O)C(C)(C)O1` [Compound 49, N-(3-carbamoyl-5,5,7,7-tetramethyl-4H-thieno[2,3-c]pyran-2-yl)-1H-pyrazole-4-carboxamide], the negative logarithm of the EC50 (pEC50) on CFTR ΔF508 mutant is 6.90; at CFTR G551D mutant it was 5.25.
For `CCC(O)C(=O)Nc1sc2c(c1C(N)=O)CC(C)(C)OC2(C)C` (stereo not drawn) [Compound 53, 2-(2-hydroxybutanoylamino)-5,5,7,7-tetramethyl-4H-thieno[2,3-c]pyran-3-carboxamide], in that order: 8.00 and 5.48.
On the same counts, the results for `CC(O)C1(C(=O)Nc2sc3c(c2C(N)=O)CC(C)(C)OC3(C)C)CC1` (stereo not drawn) [Compound 59, 2-[[1-(1-hydroxyethyl)cyclopropanecarbonyl]amino]-5,5,7,7-tetramethyl-4H-thieno[2,3-c]pyran-3-carboxamide] are 8.06 and 5.48.
As for `CC1(C)Cc2c(sc(NC(=O)C(O)C3CC3)c2C(N)=O)C(C)(C)O1` (stereo not drawn) [Compound 60, 2-[(2-cyclopropyl-2-hydroxy-acetyl)amino]-5,5,7,7-tetramethyl-4H-thieno[2,3-c]pyran-3-carboxamide], the pEC50 at CFTR ΔF508 mutant was 7.73; at CFTR G551D mutant, 5.18.
Regarding `CC(O)c1cc(C(=O)Nc2sc3c(c2C(N)=O)CC(C)(C)OC3(C)C)n[nH]1` (stereo not drawn) [Compound 61, 5-(1-Hydroxy-ethyl)-1H-pyrazole-3-carboxylic acid (3-carbamoyl-5,5,7,7-tetramethyl-4,7-dihydro-5H-thieno[2,3-c]pyran-2-yl)-amide], the pEC50 is 6.73 on CFTR ΔF508 mutant and 5.38 at CFTR G551D mutant.
`CCOC(=O)C1CC1C(=O)Nc1sc2c(c1C(N)=O)CC(C)(C)OC2(C)C` (stereo not drawn) [Compound 62, 2-(3-Carbamoyl-5,5,7,7-tetramethyl-4,7-dihydro-5H-thieno[2,3-c]pyran-2-ylcarbamoyl)-cyclopropanecarboxylic acid ethyl ester]: the negative-log EC50 (pEC50) at CFTR ΔF508 mutant was 6.52; on CFTR G551D mutant, 5.48.
For `COC/C=C/c1c[nH]nc1C(=O)Nc1sc2c(c1C(N)=O)CC(C)(C)OC2(C)C` [Compound 63, N-(3-carbamoyl-5,5,7,7-tetramethyl-4H-thieno[2,3-c]pyran-2-yl)-4-[(E)-3-methoxyprop-1-enyl]-1H-pyrazole-3-carboxamide], in that order: 7.18 and 5.93.
For the compound `CC1(C)Cc2c(sc(NC(=O)c3cc(C(C)(C)O)[nH]n3)c2C(N)=O)C(C)(C)O1` [Compound 64, N-(3-carbamoyl-5,5,7,7-tetramethyl-4H-thieno[2,3-c]pyran-2-yl)-5-(1-hydroxy-1-methyl-ethyl)-1H-pyrazole-3-carboxamide], the negative logarithm of the EC50 (pEC50) at CFTR ΔF508 mutant is 6.78; on CFTR G551D mutant it was 5.54.
For `COCCCc1c[nH]nc1C(=O)Nc1sc2c(c1C(N)=O)CC(C)(C)OC2(C)C` [Compound 65, N-(3-carbamoyl-5,5,7,7-tetramethyl-4H-thieno[2,3-c]pyran-2-yl)-4-(3-methoxypropyl)-1H-pyrazole-3-carboxamide], in that order: 7.57 and 5.81.
With `CC1(C)Cc2c(sc(NC(=O)CO)c2C(N)=O)C(C)(C)O1` [Compound 66, 2-[(2-hydroxyacetyl)amino]-5,5,7,7-tetramethyl-4H-thieno[2,3-c]pyran-3-carboxamide], the negative-log EC50 (pEC50) on CFTR ΔF508 mutant is 7.08; at CFTR G551D mutant, 5.48.
On to `CC(C)C(O)CC(=O)Nc1sc2c(c1C(N)=O)CC(C)(C)OC2(C)C` (stereo not drawn) [Compound 67, 2-[(3-hydroxy-4-methyl-pentanoyl)amino]-5,5,7,7-tetramethyl-4H-thieno[2,3-c]pyran-3-carboxamide], for which the pEC50 was 7.37 on CFTR ΔF508 mutant and 5.48 at CFTR G551D mutant.
For the compound `CC1(C)Cc2c(sc(NC(=O)CC(O)C3CC3)c2C(N)=O)C(C)(C)O1` (stereo not drawn) [Compound 68, 2-[(3-cyclopropyl-3-hydroxy-propanoyl)amino]-5,5,7,7-tetramethyl-4H-thieno[2,3-c]pyran-3-carboxamide], the pEC50 is 7.22 on CFTR ΔF508 mutant and 5.48 at CFTR G551D mutant.
For `CC1(C)Cc2c(sc(NC(=O)CC(O)C(F)(F)F)c2C(N)=O)C(C)(C)O1` (stereo not drawn) [Compound 69, 5,5,7,7-tetramethyl-2-[(4,4,4-trifluoro-3-hydroxy-butanoyl)amino]-4H-thieno[2,3-c]pyran-3-carboxamide], in that order: 7.47 and 5.48.
